Four molecules from publication PMC9190014, “Structure, dynamics, and molecular inhibition of the Staphylococcus aureus m^1A22-tRNA methyltransferase TrmK” (The Journal of Biological Chemistry, 2022) can be followed below.

For assay [1], the target named is T1, m1A22-tRNA methyltransferase TrmK (SaTrmK) (Staphylococcus aureus, UniProt Q2FY13).
T1 construct: gene SAOUHSC_01661; recombinant SaTrmK, His-tag cleaved by TEVP, N-terminal glycine residue left
In words: ITC; co-crystal structure at […] Å; DSF. Type of assay: binding. Background: ITC needs no label: the signal is the heat of the interaction.

The target of assay [2] is T1, m1A22-tRNA methyltransferase TrmK (SaTrmK). In words: ITC; co-crystal structure at […] Å; DSF. Type of assay: binding. The source holds these as a separate data set.
For assay [3] the target is unchanged. In words: intact-mass ESI-MS and LC-MS/MS peptide mapping of covalent adduct; MTase-Glo inhibition assay. Type of assay: binding.
Assay [4] has the same target. In words: MTase-Glo methyltransferase assay with tRNA-Leu, single concentration. Type of assay: biochemical.

As usually defined, the Kd is the concentration at which binding is half-saturated. One may read the inhibition as the relative decrease from the control value, in per cent. Higher therefore signals strong suppression.

Like-named read-outs stand apart in the source and are kept apart here.

T1 sequence (Q2FY13 entry or part of it): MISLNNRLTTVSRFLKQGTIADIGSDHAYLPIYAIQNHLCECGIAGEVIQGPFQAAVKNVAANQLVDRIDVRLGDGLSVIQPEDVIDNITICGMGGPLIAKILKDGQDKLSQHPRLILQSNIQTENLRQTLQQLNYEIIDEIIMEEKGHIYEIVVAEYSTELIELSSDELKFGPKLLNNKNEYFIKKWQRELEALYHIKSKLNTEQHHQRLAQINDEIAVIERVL

`Nc1ncnc2c1ncn2[C@@H]1O[C@H](CSCC[C@H](N)C(=O)O)[C@@H](O)[C@H]1O` [SAH]: in assay [1], the Kd was determined as 940 ± 50 nM.
In assay [2], `C[S@@+](CC[C@H](N)C(=O)O)C[C@H]1O[C@@H](n2cnc3c(N)ncnc32)[C@H](O)[C@@H]1O` [SAM] registered a Kd of 39 ± 4 µM.
`CC1=CC(=O)c2c(O)cccc2C1=O` [plumbagin, 5-hydroxy-2-methyl-1,4-naphtoquinone]: the inhibition at 5 µM in assay [3] is around 93%.
`Nc1ncnc2c1ncn2[C@@H]1O[C@H](C[C@@H](N)CC[C@H](N)C(=O)O)[C@@H](O)[C@H]1O` [sinefungin]: the inhibition at 10 µM in assay [4] is around 98%.
